# In US20120122924A1, “NAMPT INHIBITORS” (ABBOTT LABORATORIES, priority 2010, published 2012):
# Target: recombinant, human, C-terminally-His tagged NAMPT (Homo sapiens, UniProt P43490)
# Experiment: Time-Resolved Fluorescence Resonance Energy Transfer (TR-FRET) binding assay of NAMPT
# Conditions: 6.8 nM NAMPT, 200 nM probe (Oregon Green 488-conjugated APO866), 1 nM Tb-anti-His antibody, 2-3 hours
# Description: Determination of the utility of compounds having Formula (I) as binders to and inhibitors of NAMPT was performed using a Time-Resolved Fluorescence Resonance Energy Transfer (TR-FRET) binding assay.
# Time-Resolved Fluorescence Resonance Energy Transfer (TR-FRET) Binding Assay of NAMPT
# The assay was carried out in 18 uL low volume plates (Owens Corning) in reaction buffer (50 mM HEPES (NaOH), pH 7.5, 100 mM NaCl, 10 mM MgCl2, 1 mM DTT, 1% Glycerol) using 6.8 nM recombinant, human, C-terminally-His tagged NAMPT, 1 nM Tb-anti-His antibody (Invitrogen, Cat # PV5895), and 200 nM probe (Oregon Green 488-conjugated APO866; A-1251667.0). Plates were covered, and reactions were carried out for 2-3 hours. Plates were read with Envision (Laser Lantha low volume protocol) after 2 to 3 hours. Excitation was carried out at 337 nm, and the ratio of emission of Oregon Green (520 nm) to terbium (492 nm) was determined and used to calculate IC50 values of test compounds.
# recombinant, human, C-terminally-His tagged NAMPT, sequence (P43490 whole entry): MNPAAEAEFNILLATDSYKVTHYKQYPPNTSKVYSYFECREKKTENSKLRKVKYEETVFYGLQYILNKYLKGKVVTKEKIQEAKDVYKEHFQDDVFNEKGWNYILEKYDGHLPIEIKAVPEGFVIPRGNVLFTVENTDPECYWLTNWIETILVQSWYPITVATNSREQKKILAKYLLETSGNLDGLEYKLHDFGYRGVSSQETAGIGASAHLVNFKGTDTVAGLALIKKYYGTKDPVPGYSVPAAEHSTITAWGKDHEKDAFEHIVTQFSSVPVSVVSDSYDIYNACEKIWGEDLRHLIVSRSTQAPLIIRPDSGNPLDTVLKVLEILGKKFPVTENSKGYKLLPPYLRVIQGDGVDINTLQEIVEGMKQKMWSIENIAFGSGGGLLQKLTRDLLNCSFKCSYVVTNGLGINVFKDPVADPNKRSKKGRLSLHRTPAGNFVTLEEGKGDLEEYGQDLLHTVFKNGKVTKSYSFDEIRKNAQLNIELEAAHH
row,SMILES,IC50 [µM]
1,"CC(C)C(=O)NCCc1ccc(NC(=O)N2CCc3ccccc3C2)cc1 [Example 62, N-{4-[2-(isobutyrylamino)ethyl]phenyl}-3,4-dihydroisoquinoline-2(1H)-carboxamide]",1.47
2,"O=C(Nc1ccc(NC(=O)N2CCc3ccccc3C2)cc1)c1ccno1 [Example 90, N-{4-[(1,2-oxazol-5-ylcarbonyl)amino]phenyl}-3,4-dihydroisoquinoline-2(1H)-carboxamide]",0.314
3,"CCCCCCNC(=O)N1CCc2ccccc2C1 [Example 59, N-hexyl-3,4-dihydroisoquinoline-2(1H)-carboxamide]",0.864
4,"COCCOCC(=O)Nc1ccc(NC(=O)N2CCc3ccccc3C2)cc1 [Example 74, N-(4-{[(2-methoxyethoxy)acetyl]amino}phenyl)-3,4-dihydroisoquinoline-2(1H)-carboxamide]",0.0862
5,"O=C(NCCc1cccs1)c1ccc(NC(=O)N2CCc3cnccc3C2)cc1 [Example 12, N-(4-{[2-(2-thienyl)ethyl]carbamoyl}phenyl)-3,4-dihydro-2,6-naphthyridine-2(1H)-carboxamide]",0.0452
6,"Cc1cc(C(=O)Nc2ccc(NC(=O)N3CCc4ccccc4C3)cc2)c(C)o1 [Example 84, N-{4-[(2,5-dimethyl-3-furoyl)amino]phenyl}-3,4-dihydroisoquinoline-2(1H)-carboxamide]",0.0858
7,"CC(=O)N1CC=C(c2ccc(NC(=O)N3CCc4ccccc4C3)cc2)CC1 [Example 50, N-[4-(1-acetyl-1,2,3,6-tetrahydropyridin-4-yl)phenyl]-3,4-dihydroisoquinoline-2(1H)-carboxamide]",0.0586
8,"O=C(NCCc1cccs1)c1ccc(NC(=O)N2CCc3ccncc3C2)cc1 [Example 30, N-(4-{[2-(2-thienyl)ethyl]carbamoyl}phenyl)-3,4-dihydro-2,7-naphthyridine-2(1H)-carboxamide]",2.11
9,"O=C(Cc1ccc(NC(=O)N2CCc3ccccc3C2)cc1)NCCCc1ccccc1 [Example 27, N-(4-{2-oxo-2-[(3-phenylpropyl)amino]ethyl}phenyl)-3,4-dihydroisoquinoline-2(1H)-carboxamide]",1.03
10,"CC(C)CS(=O)(=O)N1CC=C(c2ccc(NC(=O)N3CCc4ccccc4C3)cc2)CC1 [Example 51, N-{4-[1-(isobutylsulfonyl)-1,2,3,6-tetrahydropyridin-4-yl]phenyl}-3,4-dihydroisoquinoline-2(1H)-carboxamide]",0.0749
11,"O=C(CCN1CCCCC1)Nc1ccc(NC(=O)N2CCc3ccccc3C2)cc1 [Example 93, N-(4-{[3-(piperidin-1-yl)propanoyl]amino}phenyl)-3,4-dihydroisoquinoline-2(1H)-carboxamide]",0.53
12,"O=C(Nc1ccc(NC(=O)N2CCc3ccccc3C2)cc1)c1cn[nH]c1 [Example 89, N-{4-[(1H-pyrazol-4-ylcarbonyl)amino]phenyl}-3,4-dihydroisoquinoline-2(1H)-carboxamide]",0.203
13,"O=C(Nc1ccc(NC(=O)N2CCc3ccccc3C2)cc1)c1ccoc1 [Example 83, N-[4-(3-furoylamino)phenyl]-3,4-dihydroisoquinoline-2(1H)-carboxamide]",0.269
14,"CC(C)CCNC(=O)c1ccc(NC(=O)N2CCc3ccccc3C2)cc1 [Example 1, N-{4-[(3-methylbutyl)carbamoyl]phenyl}-3,4-dihydroisoquinoline-2(1H)-carboxamide]",0.0167
15,"CN(C)CCC(=O)Nc1ccc(NC(=O)N2CCc3ccccc3C2)cc1 [Example 92, N-{4-[(N,N-dimethyl-beta-alanyl)amino]phenyl}-3,4-dihydroisoquinoline-2(1H)-carboxamide]",5.84
16,"O=C(Nc1ccc(C2=CCNCC2)cc1)N1CCc2ccccc2C1 [Example 54, N-[4-(1,2,3,6-tetrahydropyridin-4-yl)phenyl]-3,4-dihydroisoquinoline-2(1H)-carboxamide]",0.289
17,"O=C(NCCCc1ccccc1)c1ccc(NC(=O)N2CCc3ccccc3C2)cn1 [Example 21, N-{6-[(3-phenylpropyl)carbamoyl]pyridin-3-yl}-3,4-dihydroisoquinoline-2(1H)-carboxamide]",0.286
18,"O=C(NCCCc1ccccc1)c1ccc(NC(=O)N2CCc3ccccc3C2)nc1 [Example 9, N-{5-[(3-phenylpropyl)carbamoyl]pyridin-2-yl}-3,4-dihydroisoquinoline-2(1H)-carboxamide]",0.0291
19,"O=C(Nc1ccc(-c2noc(Cc3ccccc3)n2)cc1)N1CCc2ccccc2C1 [Example 57, N-[4-(5-benzyl-1,2,4-oxadiazol-3-yl)phenyl]-3,4-dihydroisoquinoline-2(1H)-carboxamide]",0.887
20,"O=C(Nc1ccc(/C=C/CCCc2ccccc2)cc1)N1CCc2ccccc2C1 [Example 39, N-{4-[(1E)-5-phenylpent-1-en-1-yl]phenyl}-3,4-dihydroisoquinoline-2(1H)-carboxamide]",0.611

# Now those with a lower IC50, led by results:
row,IC50 [µM],SMILES
1,0.016,"O=C(Cc1ccccn1)Nc1ccc(NC(=O)N2CCc3ccccc3C2)cc1 [Example 91, N-{4-[(pyridin-2-ylacetyl)amino]phenyl}-3,4-dihydroisoquinoline-2(1H)-carboxamide]"
2,0.0157,"CC(C)CCNC(=O)c1ccc(NC(=O)N2CCc3cnccc3C2)cc1 [Example 5, N-{4-[(3-methylbutyl)carbamoyl]phenyl}-3,4-dihydro-2,6-naphthyridine-2(1H)-carboxamide]"
3,0.015,"O=C(NCCCc1ccccc1)c1ccc(NC(=O)N2CCc3cnccc3C2)cc1 [Example 4, N-{4-[(3-phenylpropyl)carbamoyl]phenyl}-3,4-dihydro-2,6-naphthyridine-2(1H)-carboxamide]"
4,0.0138,"CC(C)S(=O)(=O)N1CC=C(c2ccc(NC(=O)N3CCc4ccccc4C3)cc2)CC1 [Example 45, N-{4-[1-(isopropylsulfonyl)-1,2,3,6-tetrahydropyridin-4-yl]phenyl}-3,4-dihydroisoquinoline-2(1H)-carboxamide]"
5,0.0107,"O=C(COCc1ccccc1)Nc1ccc(NC(=O)N2CCc3ccccc3C2)cc1 [Example 63, N-(4-{[(benzyloxy)acetyl]amino}phenyl)-3,4-dihydroisoquinoline-2(1H)-carboxamide]"
6,0.0101,"O=C(Nc1ccc(C2=CCN(C(=O)c3ccccc3)CC2)cc1)N1CCc2ccccc2C1 [Example 43, N-[4-(1-benzoyl-1,2,3,6-tetrahydropyridin-4-yl)phenyl]-3,4-dihydroisoquinoline-2(1H)-carboxamide]"
7,0.00616,"CC(C)CCC(=O)Nc1ccc(NC(=O)N2CCc3ccccc3C2)cc1 [Example 31, N-{4-[(4-methylpentanoyl)amino]phenyl}-3,4-dihydroisoquinoline-2(1H)-carboxamide]"
8,0.0053,"O=C(CC1CCCCC1)Nc1ccc(NC(=O)N2CCc3ccccc3C2)cc1 [Example 79, N-{4-[(cyclohexylacetyl)amino]phenyl}-3,4-dihydroisoquinoline-2(1H)-carboxamide]"
9,0.003,"CS(=O)(=O)Nc1cccc2c1CCN(C(=O)Nc1ccc(NC(=O)CC3CCCC3)cc1)C2 [Example 98, N-{4-[(cyclopentylacetyl)amino]phenyl}-5-[(methylsulfonyl)amino]-3,4-dihydroisoquinoline-2(1H)-carboxamide]"
10,0.00275,"CC(C)(C)CC(=O)Nc1ccc(NC(=O)N2CCc3ccccc3C2)cc1 [Example 71, N-{4-[(3,3-dimethylbutanoyl)amino]phenyl}-3,4-dihydroisoquinoline-2(1H)-carboxamide]"
